The target in data set [1] is T1, Phosphatidylinositol 4,5-bisphosphate 3-kinase catalytic subunit delta isoform (Homo sapiens, UniProt O00329).
T1 sequence (O00329 whole entry): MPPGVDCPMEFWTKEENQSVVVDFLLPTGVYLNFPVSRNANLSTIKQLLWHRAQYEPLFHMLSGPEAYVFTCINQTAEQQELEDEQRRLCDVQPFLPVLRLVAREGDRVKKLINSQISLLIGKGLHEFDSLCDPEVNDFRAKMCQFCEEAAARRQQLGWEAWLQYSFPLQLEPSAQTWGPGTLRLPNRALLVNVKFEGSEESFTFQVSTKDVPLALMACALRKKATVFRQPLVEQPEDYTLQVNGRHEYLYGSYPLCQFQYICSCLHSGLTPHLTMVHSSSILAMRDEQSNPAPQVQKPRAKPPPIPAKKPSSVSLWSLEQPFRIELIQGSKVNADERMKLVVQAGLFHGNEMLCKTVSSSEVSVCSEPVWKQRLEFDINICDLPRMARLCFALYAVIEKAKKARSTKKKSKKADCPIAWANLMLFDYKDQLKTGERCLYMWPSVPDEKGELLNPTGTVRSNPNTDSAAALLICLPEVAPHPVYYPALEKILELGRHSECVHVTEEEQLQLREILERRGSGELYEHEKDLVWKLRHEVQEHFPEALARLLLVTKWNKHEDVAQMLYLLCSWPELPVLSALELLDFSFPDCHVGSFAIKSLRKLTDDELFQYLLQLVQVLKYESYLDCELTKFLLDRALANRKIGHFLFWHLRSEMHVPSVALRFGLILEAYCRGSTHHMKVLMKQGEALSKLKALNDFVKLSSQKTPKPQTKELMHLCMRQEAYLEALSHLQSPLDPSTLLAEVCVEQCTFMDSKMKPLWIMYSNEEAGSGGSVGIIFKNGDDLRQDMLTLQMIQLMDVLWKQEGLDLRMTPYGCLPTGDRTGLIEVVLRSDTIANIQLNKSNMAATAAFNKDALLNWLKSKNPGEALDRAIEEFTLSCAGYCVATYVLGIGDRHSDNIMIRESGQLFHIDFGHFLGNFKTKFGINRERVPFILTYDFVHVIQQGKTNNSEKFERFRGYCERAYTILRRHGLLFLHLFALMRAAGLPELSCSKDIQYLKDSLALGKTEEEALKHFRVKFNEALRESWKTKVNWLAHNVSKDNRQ
In words: Inhibition of PI3Kdelta in human HL60 cell lysate by kinobead assay.

Data set [2] addresses Phosphatidylinositol 4,5-bisphosphate 3-kinase catalytic subunit alpha isoform (Homo sapiens, UniProt P42336). In words: Inhibition of PI3Kalpha in human HL60 cell lysate by kinobead assay.
For data set [3], the target named is Phosphatidylinositol 4,5-bisphosphate 3-kinase catalytic subunit beta isoform (Homo sapiens, UniProt P42338). Description: Inhibition of PI3Kbeta in human HL60 cell lysate by kinobead assay. It counts as cell-free, HL-60.
For data set [4], the target named is Phosphatidylinositol 4,5-bisphosphate 3-kinase catalytic subunit gamma isoform (Homo sapiens, UniProt P48736). In words: Inhibition of PI3Kgamma in human HL60 cell lysate by kinobead assay.
Data set [5] in a line: Antiinflammatory activity in human neutrophils assessed as inhibition of fMLP-induced migration. It counts as functional, cell-based. To be noted: Neutrophil.
Data set [6] is described as follows: Efflux ratio of apparent permeability across human Caco2 cells. It counts as ADME, cell-based. Conditions: Caco-2; call rule not given here. For orientation: Caco-2 cells form a polarised layer with tight junctions and transporters.
Data set [7] relates to Liver microsomes. In words: Intrinsic clearance in human liver microsomes assessed per g of liver. It counts as ADME, Microsome. (In general: Liver microsomes are a subcellular fraction often used to study metabolism.)
Data set [8] is described as follows: Apparent permeability from apical to basal side of human Caco2 cells. It counts as ADME, cell-based. Conditions: Caco-2.
For data set [9], the system named is Liver microsomes. In words: Intrinsic clearance in rat liver microsomes assessed per g of liver. It counts as ADME, Microsome.
Data set [10] in a line: Kinetic solubility in 1%DMSO solution. It counts as physicochemical. To be noted: read-out: Kinetic_solubility.
In the next data set the test system is Mus musculus. Description: Antiinflammatory activity in BALB/c mouse assessed as reduction in LPS-induced neutrophil accumulation in bronchoalveolar lung fluid at 0.5 mg, it administered 1 hr prior to LPS-challenge and measured after 8 hrs relative to vehicle treated control. Also noted: scale not given: the % may be the effect or the level left. It counts as functional.

A short description of data set [11]: Clearance in iv dosed rat. It counts as ADME, organism-based. Conditions: in vivo.
Data set [12] has as its system Plasma. In words: Drug metabolism in iv dosed rat plasma assessed as 2-(3-(6-(5-(N-tert-butylsulfamoyl)pyridin-3-yl)-[1,2,4]triazolo[1,5-a]pyridin-2-yl)ureido)acetic acid formation. It counts as ADME, organism-based. To be noted: in vivo.
The test system of data set [13] is Plasma. Description: Drug metabolism in iv dosed rat plasma assessed as CZC19945 formation. It counts as ADME, organism-based. To be noted: in vivo.

Data on 21 compounds can be found in ChEMBL document CHEMBL2057090, “Discovery of novel PI3Kγ/δ inhibitors as potential agents for inflammation” (Bioorg Med Chem Lett, 2012).

Each structure is given as a SMILES string. pIC50: −log10 of the molar value. Converted amounts (≈) assume the structure as drawn. Some results are limits rather than exact numbers.

Phosphatidylinositol 4,5-bisphosphate 3-kinase catalytic subunit gamma isoform, sequence (P48736 whole entry, canonical isoform): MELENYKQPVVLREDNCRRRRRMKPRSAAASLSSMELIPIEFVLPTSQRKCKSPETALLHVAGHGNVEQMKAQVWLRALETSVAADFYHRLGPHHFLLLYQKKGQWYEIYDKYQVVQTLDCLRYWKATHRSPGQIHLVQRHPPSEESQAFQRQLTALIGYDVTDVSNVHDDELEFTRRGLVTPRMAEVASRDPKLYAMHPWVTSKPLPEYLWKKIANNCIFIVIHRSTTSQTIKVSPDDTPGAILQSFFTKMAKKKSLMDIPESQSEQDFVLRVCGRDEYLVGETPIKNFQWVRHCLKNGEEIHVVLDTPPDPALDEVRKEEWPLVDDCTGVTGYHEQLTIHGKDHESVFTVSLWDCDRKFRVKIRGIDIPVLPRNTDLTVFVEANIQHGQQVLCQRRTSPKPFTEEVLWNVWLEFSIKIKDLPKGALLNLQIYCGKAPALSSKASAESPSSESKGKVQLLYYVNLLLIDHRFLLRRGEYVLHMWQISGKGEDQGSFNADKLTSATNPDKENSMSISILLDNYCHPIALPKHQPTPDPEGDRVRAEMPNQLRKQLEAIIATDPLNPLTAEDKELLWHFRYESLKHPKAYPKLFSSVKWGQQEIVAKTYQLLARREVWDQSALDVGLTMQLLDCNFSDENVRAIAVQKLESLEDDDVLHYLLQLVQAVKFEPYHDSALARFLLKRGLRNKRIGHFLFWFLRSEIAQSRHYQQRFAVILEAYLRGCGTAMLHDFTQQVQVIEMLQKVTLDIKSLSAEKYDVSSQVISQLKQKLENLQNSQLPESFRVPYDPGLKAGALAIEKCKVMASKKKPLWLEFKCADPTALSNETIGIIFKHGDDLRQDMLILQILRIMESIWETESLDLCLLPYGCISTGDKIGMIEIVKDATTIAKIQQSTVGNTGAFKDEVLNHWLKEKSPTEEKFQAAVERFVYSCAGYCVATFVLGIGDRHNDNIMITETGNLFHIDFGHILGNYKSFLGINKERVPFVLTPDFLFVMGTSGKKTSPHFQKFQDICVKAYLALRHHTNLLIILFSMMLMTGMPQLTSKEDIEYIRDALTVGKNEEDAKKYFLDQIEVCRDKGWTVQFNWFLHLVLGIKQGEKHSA
Phosphatidylinositol 4,5-bisphosphate 3-kinase catalytic subunit beta isoform, sequence (P42338 whole entry, canonical isoform): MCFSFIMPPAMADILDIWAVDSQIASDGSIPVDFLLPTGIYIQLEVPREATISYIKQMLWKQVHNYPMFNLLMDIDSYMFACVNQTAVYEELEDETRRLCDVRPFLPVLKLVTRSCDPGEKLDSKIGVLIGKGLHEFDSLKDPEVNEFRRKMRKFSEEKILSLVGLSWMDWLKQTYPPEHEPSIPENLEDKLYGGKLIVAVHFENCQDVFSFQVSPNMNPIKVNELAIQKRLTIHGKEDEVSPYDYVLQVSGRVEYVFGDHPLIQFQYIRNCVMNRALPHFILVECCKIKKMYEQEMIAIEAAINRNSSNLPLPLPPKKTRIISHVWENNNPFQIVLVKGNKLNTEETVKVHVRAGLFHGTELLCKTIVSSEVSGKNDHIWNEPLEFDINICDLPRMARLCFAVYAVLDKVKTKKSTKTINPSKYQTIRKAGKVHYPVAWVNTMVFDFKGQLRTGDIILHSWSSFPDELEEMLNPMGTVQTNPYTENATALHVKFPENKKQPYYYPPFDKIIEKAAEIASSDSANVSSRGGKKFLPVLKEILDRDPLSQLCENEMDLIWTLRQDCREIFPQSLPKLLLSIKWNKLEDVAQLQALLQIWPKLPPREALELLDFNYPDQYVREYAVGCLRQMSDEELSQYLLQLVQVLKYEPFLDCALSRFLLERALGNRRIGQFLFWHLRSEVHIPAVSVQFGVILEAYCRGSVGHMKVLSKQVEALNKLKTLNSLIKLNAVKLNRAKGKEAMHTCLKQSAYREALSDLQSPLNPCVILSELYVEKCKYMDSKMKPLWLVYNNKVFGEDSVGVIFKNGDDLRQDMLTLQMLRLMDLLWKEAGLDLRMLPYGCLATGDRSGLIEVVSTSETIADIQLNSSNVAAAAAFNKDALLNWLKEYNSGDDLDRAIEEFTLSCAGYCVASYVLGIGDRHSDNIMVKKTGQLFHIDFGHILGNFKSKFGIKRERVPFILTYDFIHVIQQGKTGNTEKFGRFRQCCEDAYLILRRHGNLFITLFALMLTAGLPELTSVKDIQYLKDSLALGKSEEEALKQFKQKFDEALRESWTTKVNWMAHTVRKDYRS
Phosphatidylinositol 4,5-bisphosphate 3-kinase catalytic subunit alpha isoform, sequence (P42336 whole entry, canonical isoform): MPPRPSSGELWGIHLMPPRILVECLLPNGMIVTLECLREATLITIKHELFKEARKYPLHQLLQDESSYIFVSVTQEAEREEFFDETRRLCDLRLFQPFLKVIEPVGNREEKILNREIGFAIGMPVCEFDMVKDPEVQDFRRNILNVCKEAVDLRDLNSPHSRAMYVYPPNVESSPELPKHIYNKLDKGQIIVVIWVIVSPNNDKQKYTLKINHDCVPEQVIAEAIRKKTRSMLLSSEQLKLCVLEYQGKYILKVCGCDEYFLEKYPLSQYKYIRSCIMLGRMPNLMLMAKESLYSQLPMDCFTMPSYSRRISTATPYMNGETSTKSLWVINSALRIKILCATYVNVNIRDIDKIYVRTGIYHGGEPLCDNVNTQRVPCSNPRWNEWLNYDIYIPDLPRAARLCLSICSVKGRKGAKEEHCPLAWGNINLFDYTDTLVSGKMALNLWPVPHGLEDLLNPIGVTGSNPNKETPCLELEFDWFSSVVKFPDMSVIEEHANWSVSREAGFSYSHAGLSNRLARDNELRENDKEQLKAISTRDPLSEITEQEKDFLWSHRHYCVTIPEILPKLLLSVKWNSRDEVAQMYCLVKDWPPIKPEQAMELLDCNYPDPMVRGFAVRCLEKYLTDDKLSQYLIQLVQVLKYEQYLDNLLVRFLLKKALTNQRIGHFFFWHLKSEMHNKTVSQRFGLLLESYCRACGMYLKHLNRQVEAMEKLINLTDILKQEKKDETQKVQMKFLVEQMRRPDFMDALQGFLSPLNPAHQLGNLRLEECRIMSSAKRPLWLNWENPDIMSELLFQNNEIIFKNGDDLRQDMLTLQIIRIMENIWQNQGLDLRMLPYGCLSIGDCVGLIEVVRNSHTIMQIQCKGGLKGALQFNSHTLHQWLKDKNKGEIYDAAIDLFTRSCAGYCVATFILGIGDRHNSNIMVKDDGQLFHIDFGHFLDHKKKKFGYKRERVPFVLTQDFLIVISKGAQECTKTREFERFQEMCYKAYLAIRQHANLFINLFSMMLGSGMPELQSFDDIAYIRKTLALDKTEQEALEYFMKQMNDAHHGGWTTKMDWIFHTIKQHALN

One may read the pIC50 as the IC50 on a negative log10 scale, so that one unit is a factor of ten. For the compound `CC(C)(C)NS(=O)(=O)c1cncc(-c2ccc3nc(NC(=O)Nc4ccccc4)nn3c2)c1`, the negative-log IC50 (pIC50) in data set [1] was < 4.60; in data set [2], < 4.00; in data set [3], < 4.00; in data set [4] it was 6.60.
As for `CC(C)(C)NS(=O)(=O)c1cncc(-c2ccc3nc(NC(=O)NCc4ccccc4)nn3c2)c1`, the pIC50 in [1] is 5.80; in data set [2], < 4.70; in data set [3], 5.50; in [5], 5.80; in [4] it was 7.20.
Take `CC(C)(C)NS(=O)(=O)c1cncc(-c2ccc3nc(NC(=O)NCCc4ccccc4)nn3c2)c1`: the negative-log IC50 (pIC50) in data set [1] is 7.60; in data set [2], < 5.50; in data set [3], 6.00; in [5], 6.40; in data set [4], 7.50.
For the compound `Cc1noc(C)c1CCNC(=O)Nc1nc2ccc(-c3cncc(S(=O)(=O)NC(C)(C)C)c3)cn2n1`, the negative logarithm of the IC50 (pIC50) in data set [1] is 7.90; in [2], 5.70; in data set [3], 7.10; in data set [5], 6.60; in data set [4], 7.60.
In general, efflux ratio refers to the permeability from basolateral to apical divided by that in the opposite direction, in the common usage. A word on the Papp A→B: it is the apparent permeability from the apical to the basolateral side of a cell layer. `CN(C)C(=O)CNC(=O)Nc1nc2ccc(-c3cncc(S(=O)(=O)NC(C)(C)C)c3)cn2n1`: the negative logarithm of the IC50 (pIC50) was 7.10 in data set [1]; 4.90 in [2]; 5.90 in data set [3]; 6.10 in data set [5]; 8.50 in [4]. The efflux ratio in data set [6] was determined as 109. For the same compound, the values for the CLint in the data set on Liver microsomes [7] and in the data set with Liver microsomes [9] were 0.5 mL/min/g and 0.9 mL/min/g, respectively. Moreover, the apparent permeability from apical to basolateral (Papp A→B) in [8] stood at 0.54 ×10⁻⁶ cm/s. The solubility kinetic in data set [10] is < 6.5 µM.
Regarding `CC(C)(C)NS(=O)(=O)c1cncc(-c2ccc3nc(NC(=O)NCCn4cccn4)nn3c2)c1`, the pIC50 in [1] was 6.70; in data set [2], 6.20; in [3], 6.20; in data set [5] it was 6.80; in data set [4], 7.60.
With `Cc1nc(CCNC(=O)Nc2nc3ccc(-c4cncc(S(=O)(=O)NC(C)(C)C)c4)cn3n2)cs1`, the negative logarithm of the IC50 (pIC50) is 7.80 in data set [1]; 6.10 in data set [2]; < 6.70 in data set [3]; 6.40 in data set [5]; 8.10 in data set [4].
As for `CC(C)(C)NS(=O)(=O)c1cncc(-c2ccc3nc(NC(=O)NCCc4cnccn4)nn3c2)c1`, the negative-log IC50 (pIC50) in [1] is 7.60; in data set [2] it was 5.90; in data set [3] it was 6.90; in [5] it was 6.90; in [4], 8.20.
On to `CC(C)(C)NS(=O)(=O)c1cncc(-c2ccc3nc(NC(=O)NCCc4nnc(C5CC5)o4)nn3c2)c1`, for which the negative logarithm of the IC50 (pIC50) in data set [1] is 7.10; in [2], 5.50; in data set [3], 6.60; in data set [5] it was 6.50; in data set [4] it was 8.00.
As to `CC(C)(C)NS(=O)(=O)c1cncc(-c2ccc3nc(NC(=O)NCCn4nnc(C5CC5)n4)nn3c2)c1`, the pIC50 in [1] is 8.20; in [2], 6.10; in [3] it was 7.20; in data set [5], 7.10; in data set [4], 8.60. The efflux ratio in data set [6] is 252. The Activity in the data set on Mus musculus is given as 37%. Further, the CLint worked out at 0 mL/min/g in the data set with Liver microsomes [7] and 0.4 mL/min/g in the data set with Liver microsomes [9]. Moreover, the Papp A→B in [8] worked out at 0.08 ×10⁻⁶ cm/s. Further, in [10], the solubility kinetic is > 100 µM.
Take `CC(C)(C)NS(=O)(=O)c1cncc(-c2ccc3nc(NC(=O)NCCCn4nnc(C5CC5)n4)nn3c2)c1`: the pIC50 was 7.30 in data set [1]; < 5.20 in data set [2]; 5.60 in data set [3]; 6.60 in [5]; 7.20 in [4].
For the compound `CNC(=O)CNC(=O)Nc1nc2ccc(-c3cncc(S(=O)(=O)NC(C)(C)C)c3)cn2n1`, the pIC50 in data set [1] is 6.10; in [2] it was < 4.80; in [3], < 5.70; in data set [5], 4.70; in data set [4], 7.80.
`CC(C)(C)NS(=O)(=O)c1cncc(-c2ccc3nc(NC(=O)NCC(=O)N4CCCC4)nn3c2)c1`: the negative-log IC50 (pIC50) in data set [1] is 7.20; in data set [2], 6.00; in data set [3], 5.90; in data set [5], 5.80; in data set [4], 8.20.
In general, clearance refers to the rate of elimination divided by the concentration. As to `CC(C)(C)NS(=O)(=O)c1cncc(-c2ccc3nc(NC(=O)NCC(=O)N4CCOCC4)nn3c2)c1`, the negative-log IC50 (pIC50) was 7.80 in [1]; 6.40 in data set [2]; 6.40 in data set [3]; 6.30 in data set [5]; 8.40 in [4]. In addition, in [11], the clearance is > 200 mL/min/kg. For the same compound, the Activity in the data set with Mus musculus was determined as 34%. The CLint in the data set on Liver microsomes [7] was found to be 0 mL/min/g; in the data set on Liver microsomes [9], 0.8 mL/min/g. The Drug metabolism result with Plasma [12] and in the data set on Plasma [13] was “Not Active” in each case. In [10], the solubility kinetic was > 100 µM.
On to `CN1CCN(C(=O)CNC(=O)Nc2nc3ccc(-c4cncc(S(=O)(=O)NC(C)(C)C)c4)cn3n2)CC1`, for which the pIC50 in data set [1] was 7.90; in data set [2], 6.10; in data set [3], 6.00; in data set [5], 5.90; in data set [4], 8.60.
As to `CS(=O)(=O)c1cncc(-c2ccc3nc(N)nn3c2)c1`, the pIC50 in data set [1] was 5.20; in data set [2], 5.00; in data set [3], 5.60; in [4], 7.00.
In the case of `CC(C)(C)NS(=O)(=O)c1cncc(-c2ccc3nc(N)nn3c2)c1`, the negative logarithm of the IC50 (pIC50) in data set [1] is 5.80; in data set [2] it was 5.60; in data set [3] it was 6.70; in data set [5] it was 6.00; in data set [4], 7.60.
Turning to `CNC(=O)Nc1nc2ccc(-c3cncc(S(=O)(=O)NC(C)(C)C)c3)cn2n1`, the negative-log IC50 (pIC50) in data set [1] was 6.10; in data set [2] it was < 5.30; in [3] it was 6.40; in data set [5], 6.10; in [4], 7.90.
As for `CC(C)(C)NS(=O)(=O)c1cncc(-c2ccc3nc(NC(=O)N4CCOCC4)nn3c2)c1`, the pIC50 was 5.50 in data set [1]; < 4.60 in data set [2]; 5.40 in data set [3]; 5.10 in [5]; 6.90 in [4].
Regarding `CN(C)CCNC(=O)Nc1nc2ccc(-c3cncc(S(=O)(=O)NC(C)(C)C)c3)cn2n1`, the negative logarithm of the IC50 (pIC50) is 5.90 in data set [1]; < 5.30 in data set [2]; < 6.00 in [3]; 4.90 in [5]; 6.90 in data set [4].
Regarding `CC(C)(C)NS(=O)(=O)c1cncc(-c2ccc3nc(NC(=O)NCCN4CCOCC4)nn3c2)c1`, the pIC50 was 7.70 in data set [1]; 5.90 in data set [2]; < 6.70 in data set [3]; 7.30 in data set [5]; 7.80 in [4]. For the same compound, the figures for the CLint in the data set on Liver microsomes [7] and with Liver microsomes [9] were 1.4 mL/min/g and 0.9 mL/min/g, respectively. Besides, the solubility kinetic in data set [10] was determined as 65 µM (≈ 32.7 µg/mL).
